Results on nine compounds are retold here after patent US7018995B2, “Carbonate and carbamate modified forms of glucocorticoids” (Sepracor Inc., priority 2002, dated 2006).

A word on the IC50: it is the concentration at which inhibition is half-maximal.

One test relates to rat paw edema. The test is described as follows: Carrageenan rat paw edema model. It is filed as in vivo. The settings on record: for onset of action / maximum activity at 24 hours: rat paw edema; for reduction of swelling (percent inhibition of edema volume vs vehicle): injected into paw. How it is done: The compounds of the invention were also tested in vivo in a rat paw edema model [Hirschelmann, R. and Bekemeier, H., Int J Tissue React 6, 471-475 (1984)], which persons of skill in the art accept as predictive of efficacy in treating asthma and rhinitis in humans.
Rat Paw Edema Protocol: Male Sprague Dawley rats Rj: SD (IOPS Han) (CEJ, France) weighing between 140 and 160 grams were used in the studies. Animals were housed in a temperature (19.5-24.5° C.), relative humidity (40-70%) and 12-hour light/dark cycle (light 6:00 a.m. to 6:00 p.m.)-controlled room, with ad libitum access to filtered tap-water and standard pelleted laboratory chow (U.A.R., France) throughout the studies. Carrageenan lambda type IV (Sigma, France) was prepared as a 2% (w/v) solution in saline. Compounds to be tested were dissolved in dimethylsulfoxide (DMSO) such that the indicated doses were in a final volume of 0.05 mL. Doses were expressed as mg/paw free active substance. From 17 to 19 hours before the studies the rats were fasted with free access to water. The paw volumes of the left hindpaws of the rats were measured using an electronic plethysmometer type 7140 (Ugo Basile-Italy) at time=0. Paw edema was then induced by injection of 0.05 mL of 2% carrageenan solution into the left hindpaws of the rats. Immediately after injection of the carrageenan, compounds in DMSO or vehicle alone were injected into the same paw in a volume of 0.05 mL in a blind and random fashion.
The paw volumes were measured at 1.5 hours, 3 hours, 4.5 hours and 24 hours after administration of the compounds. The edema volume of each rat at each time point was expressed as the change from the initial paw volume (time=0). A total of 5 rats were used for each compound dose and the average edema volume calculated for each dose. The anti-inflammatory effect in treated groups was expressed as the percent inhibition of edema volume compared to the vehicle-treated group at 1.5 hours, 3 hours, 4.5 hours and 24 hours.
On the technique in general: Carrageenan injected into the paw causes an acute inflammation.

Test [1] deals with WI-38 human lung fibroblast line (IL-1β-stimulated PGE2). As to the kind of experiment: Inhibition of IL-1β-stimulated PGE2 release in WI-38 cells. It counts as cell-based. The settings on record: WI-38 cells stimulated with recombinant human IL-1β, 24 hours incubation, PGE2 by EIA; read-out: IC50 (level of PGE2 in supernatants). How it is done: Compounds as described above were tested in the following assay for biological activity. The WI-38 human lung fibroblast line was obtained from the ATCC (catalog number 75-CCL) and maintained in Basal Medium Eagle with Earle's salts (GibcoBRL product number 21010-046) supplemented with 2 mM glutamine and 10% fetal calf serum at 37° C. in a 7% CO2 (balance air), humidified atmosphere. One week before experiments were done, the WI-38 cells were seeded into 48-well tissue culture dishes and maintained in media containing 10% fetal calf serum. The cells were used when confluent. The day before the experiment the cells were fed fresh media containing 10% fetal calf serum (0.25 mL per well). On the day of the experiment the media was removed from the cells and 0.25 mL of media containing 5% fetal calf serum added.
To determine the IC50 values for the compounds, 1 to 1000 dilutions were made of the 5 mM stock solutions in DMSO to give 5 uM solutions. These solutions were serially diluted 1:2 in DMSO to give a series of 12 dilutions ranging from 5 uM to 2.4 nM. 0.0025 mL aliquots of the 12 dilutions were added to wells of the WI-38 cells to give final compound concentrations ranging from 50 nM to 0.024 nM. The cells were stimulated by addition of 0.001 mL of 0.025 ug/mL recombinant human Interleukin-1β (IL-1β-Calbiochem catalog number 407615) in 0.1% bovine serum albumin in phosphate buffered saline. The cells were incubated for 24 hours and the supernatants harvested. The level of PGE2 in the supernatants was assayed using a commercial Enzyme Immuno Assay (EIA) kit (Cayman Chemical catalog number 514010) after diluting 1:10 in EIA buffer according to the manufacturer's directions. The data from these experiments was fit to a 4 parameter logistic function using the IC50 routine in the Grafit 4 program (Erithecus software).

Setting [2] is: at 24 hours, equimolar doses equivalent to 10 μg per paw of budesonide, FIG. 1.

In the case of `CCCCCCCCCCOC(=O)OCC(=O)[C@@]12OC(CCC)O[C@@H]1C[C@H]1[C@@H]3CCC4=CC(=O)C=C[C@]4(C)[C@H]3[C@@H](O)C[C@@]12C` (stereo partly shown) [Example 8, Budesonide decylcarbonate], in the test on rat paw edema (setting [2]), the “more efficacious than budesonide itself” value is listed as 30%. Take Budesonide phytolcarbonate [Example 16]: in the test with rat paw edema, the onset of action entry was “normal onset of action” and the “maximum activity at 24 hours” value was found to be 69%. Consider Budesonide heptylcarbonate [Example 14], for which the “efficacy compared with the C6 carbonate ester” value in the test with rat paw edema (setting [2]) was “more efficacious”. Consider Budesonide dodecylcarbonate [Example 2], for which the IC50 in test [1] was determined as 0.53 nM. For the same compound, the “reduction of swelling (percent inhibition of edema volume vs vehicle)” value with rat paw edema (setting [2]) stood at 88%. As for `CCCC1OC2CC3C4CCC5=CC(=O)C=CC5(C)C4C(O)CC3(C)C2(C(=O)COC(=O)OCC(C)C)O1` (stereo not shown) [Example 1, Budesonide isobutylcarbonate], the half-inhibitory concentration (IC50) in test [1] is 0.12 nM. In the case of `CCCC1OC2CC3C4CCC5=CC(=O)C=CC5(C)C4C(O)CC3(C)C2(C(=O)COC(=O)OCCCCCCCCCCCN(C)C)O1` (stereo not shown) [Example 15, Budesonide 11-dimethylaminoundecylcarbonate], the “maximum activity at 24 hours” value in the test with rat paw edema turned out to be 73%. Consider “Budesonide farnesolcarbonate [Example 17]”, for which, in the test with rat paw edema, the onset of action result is given as “normal onset of action” and the “maximum activity at 24 hours” value was determined as 86%. Turning to Budesonide hexylcarbonate [Example 3], in test [1], the 50% inhibitory concentration (IC50) stood at 0.14 nM. As to `CCCC1O[C@@H]2C[C@H]3[C@@H]4CCC5=CC(=O)C=C[C@]5(C)[C@H]4[C@@H](O)C[C@]3(C)[C@]2(C(=O)CO)O1` (stereo partly shown) [budesonide, reference compound], the concentration for half-maximal inhibition (IC50) in test [1] is 0.2 nM. In addition, in the test with rat paw edema (setting [2]), the “reduction of swelling (percent inhibition of edema volume vs vehicle)” value came to 46%.
